According to ChEMBL document CHEMBL1130560, “Kinetic studies of the reaction of S-nitroso-L-cysteine with L-cysteine” (Bioorg Med Chem Lett, 1997):

Experiment: First order rate constant for spontaneous decomposition
Format: ADME

SMILES: N[C@@H](CSN=O)C(=O)O
- Rate constant: 0.0000146 s⁻¹
